# Laboratory results taken from patent publication US20230365592A1 (Agios Pharmaceuticals, Inc., priority 2022, published 2023).
# Target: T1, human PAH with the R408W mutation (Homo sapiens, UniProt P00439, R408W)
# T1 construct: expressed in transfected cells
# T1 sequence (P00439 1-452 R408W): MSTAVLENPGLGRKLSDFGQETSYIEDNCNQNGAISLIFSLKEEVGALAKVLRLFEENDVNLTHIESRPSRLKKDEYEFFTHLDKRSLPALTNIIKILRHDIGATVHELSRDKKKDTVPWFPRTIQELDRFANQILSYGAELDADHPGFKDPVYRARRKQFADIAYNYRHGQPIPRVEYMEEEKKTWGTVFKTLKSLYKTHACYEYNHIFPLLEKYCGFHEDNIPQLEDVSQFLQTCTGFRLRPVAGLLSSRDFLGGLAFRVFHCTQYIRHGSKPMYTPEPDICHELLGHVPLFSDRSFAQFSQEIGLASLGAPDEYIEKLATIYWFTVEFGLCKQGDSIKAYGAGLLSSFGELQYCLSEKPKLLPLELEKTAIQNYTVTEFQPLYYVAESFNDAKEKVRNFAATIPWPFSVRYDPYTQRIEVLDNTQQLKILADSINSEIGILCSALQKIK
# Experiment: Cell Based Phenylalanine Flux Assay;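 also: after compound treatment, cells received sepiapterin plus isotope-labelled Phenylalanine for 4 hours, then labelled Tyrosine in the medium was quantified, 10-point 2-fold dilution series run in duplicate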
# Details: A375 cells expressing R408W PAH; 24 hrs with compound, then 20 µM sepiapterin and 800 µM 13C9,15N-Phenylalanine for 4 hours; 13C-Tyrosine by LC-MS; average where tested multiple times; read-out: AC50
row,AC50 [µM],Compound
1,> 5,Cc1c(C2c3nc[nH]c3CCN2C(=O)c2nnc(-c3ccn(C)n3)o2)nn2ccccc12 (centres unmarked) [listing 1 of 2 here]
2,> 5,O=C(c1nnc(-c2cc[nH]n2)o1)N1CCc2[nH]cnc2C1c1cc2ccccn2n1 (centres unmarked)
3,> 5,Cc1nc(-c2ccccn2)oc1C(=O)N1CCc2[nH]cnc2C1c1cc2ccccn2n1 (centres unmarked)
4,> 5,Fc1cccnc1-c1nnc(N2CCc3[nH]cnc3C2c2cc3c(C4CC4)cccn3n2)o1 (centres unmarked) [listing 1 of 2 here]
5,> 5,Fc1ncccc1-c1nnc(N2CCc3[nH]cnc3C2c2cc3ccccn3n2)o1 (centres unmarked) [listing 1 of 2 here]
6,> 5,Fc1ncccc1-c1nnc(N2CCc3[nH]cnc3C2c2cc3c(C(F)F)cccn3n2)o1 (centres unmarked) [listing 1 of 2 here]
7,1 to 5,Cc1ncccc1-c1nnc(N2CCc3[nH]cnc3C2c2cc3c(C4CC4)cccn3n2)o1 (centres unmarked)
8,> 5,Fc1ncccc1-c1nnc(N2CCc3[nH]cnc3C2c2cc3c(C4CC4)cccn3n2)o1 (centres unmarked) [listing 1 of 2 here]
9,> 5,c1cncc(-c2nnc(N3CCc4[nH]cnc4C3c3cc4c(C5CC5)cccn4n3)o2)c1 (centres unmarked) [listing 1 of 2 here]
10,1 to 5,Cc1cccn2nc(C3c4nc[nH]c4CCN3c3cnn(C)c3)cc12 (centres unmarked)
11,1 to 5,Cc1cccn2nc(C3c4nc[nH]c4CCN3C(=O)c3nnc(-c4cncn4C)o3)cc12 (centres unmarked)
12,1 to 5,Cc1c(C2c3nc[nH]c3CCN2C(=O)c2nnc(-c3ccn(C)n3)o2)nn2ccccc12 (centres unmarked) [listing 2 of 2 here]
13,1 to 5,CC(C)c1cccn2nc(C3c4nc[nH]c4CCN3c3nnc(C(C)(C)F)o3)cc12 (centres unmarked)
14,1 to 5,CC(C)(F)c1nnc(N2CCc3[nH]cnc3C2c2cc3c(F)cccn3n2)o1 (centres unmarked)
15,1 to 5,Cc1n[nH]cc1-c1nnc(C(=O)N2CCc3[nH]cnc3C2c2cc3c(C)cccn3n2)o1 (centres unmarked)
16,> 5,CC(C)c1cccn2nc(C3c4nc[nH]c4CCN3c3cnccn3)cc12 (centres unmarked)
17,1 to 5,FC1(F)CC(c2nnc(N3CCc4[nH]cnc4C3c3cc4c(Cl)cccn4n3)o2)C1 (centres unmarked)
18,> 5,CC(C)(F)c1nnc(N2CCc3[nH]cnc3C2c2cc3c(Cl)cccn3n2)o1 (centres unmarked)
19,> 5,CC(C)c1nnc(N2CCc3[nH]cnc3C2c2cc3c(C4CC4)cccn3n2)o1 (centres unmarked)
20,> 5,CC(C)(F)c1nnc(N2CCc3[nH]cnc3C2c2cc3c(C4CC4)cccn3n2)o1 (centres unmarked)

row,AC50 [µM],Compound
1,1 to 5,Cc1n[nH]cc1-c1nnc(C(=O)N2CCc3[nH]cnc3C2c2cc3c(F)cccn3n2)o1 (centres unmarked)
2,1 to 5,Cn1cncc1-c1nnc(C(=O)N2CCc3[nH]cnc3C2c2cc3c(F)cccn3n2)o1 (centres unmarked)
3,1 to 5,COc1cccn2nc(C3c4nc[nH]c4CCN3C(=O)c3nnc(-c4cnn(C)c4)o3)cc12 (centres unmarked)
4,1 to 5,Cc1cccn2nc(C3c4nc[nH]c4CCN3C(=O)c3oc(-c4ccccn4)nc3C(F)F)cc12 (centres unmarked)
5,1 to 5,Cc1c(C2c3nc[nH]c3CCN2C(=O)c2nnc(-c3ccccn3)o2)nn2ccccc12 (centres unmarked)
6,1 to 5,Fc1cccnc1-c1nnc(N2CCc3[nH]cnc3C2c2cc3c(C(F)F)cccn3n2)o1 (centres unmarked)
7,1 to 5,Fc1cccnc1-c1nnc(N2CCc3[nH]cnc3C2c2cc3c(C4CC4)cccn3n2)o1 (centres unmarked) [listing 2 of 2 here]
8,1 to 5,CC(C)(O)c1nnc(C(=O)N2CCc3[nH]cnc3C2c2cc3c(F)cccn3n2)o1 (centres unmarked)
9,1 to 5,FC(F)(F)c1cccc2cc(C3c4nc[nH]c4CCN3c3nnc(-c4cnccn4)o3)nn12 (centres unmarked)
10,> 5,CC(C)c1nnc(N2CCc3[nH]cnc3C2c2cc3c(C(C)C)cccn3n2)o1 (centres unmarked)
11,1 to 5,Fc1ncccc1-c1nnc(N2CCc3[nH]cnc3C2c2cc3c(C(F)(F)F)cccn3n2)o1 (centres unmarked)
12,1 to 5,Fc1ncccc1-c1nnc(N2CCc3[nH]cnc3C2c2cc3ccccn3n2)o1 (centres unmarked) [listing 2 of 2 here]
13,1 to 5,Fc1cccc(-c2nnc(N3CCc4[nH]cnc4C3c3cc4ccccn4n3)o2)n1 (centres unmarked)
14,1 to 5,Fc1ncccc1-c1nnc(N2CCc3[nH]cnc3C2c2cc3c(C(F)F)cccn3n2)o1 (centres unmarked) [listing 2 of 2 here]
15,1 to 5,FC(F)c1cccn2nc(C3c4nc[nH]c4CCN3c3nnc(-c4cccnc4)o3)cc12 (centres unmarked)
16,1 to 5,c1cncc(-c2nnc(N3CCc4[nH]cnc4C3c3cc4c(C5CC5)cccn4n3)o2)c1 (centres unmarked) [listing 2 of 2 here]
17,1 to 5,Fc1ncccc1-c1nnc(N2CCc3[nH]cnc3C2c2cc3c(C4CC4)cccn3n2)o1 (centres unmarked) [listing 2 of 2 here]
18,1 to 5,O=C(c1nnc(N2CCOCC2)o1)N1CCc2[nH]cnc2C1c1cc2c(F)cccn2n1 (centres unmarked)
19,> 5,Cn1ccc(-c2nc(C(F)F)c(C(=O)N3CCc4[nH]cnc4C3c3cc4c(F)cccn4n3)o2)n1 (centres unmarked)
20,1 to 5,Fc1ccc(-c2nnc(N3CCc4[nH]cnc4C3c3cc4ccccn4n3)o2)nc1 (centres unmarked)

# Second part, the compound before the results:
row,Compound,AC50 [µM]
1,Cc1ccn2nc(C3c4nc[nH]c4CCN3C(=O)c3nnc(-c4ccn(C)n4)o3)cc2c1 (centres unmarked) [listing 1 of 2 here],> 5
2,Cc1ccn2nc(C3c4nc[nH]c4CCN3C(=O)c3nnc(-c4cnn(C)c4)o3)cc2c1 (centres unmarked) [listing 1 of 2 here],> 5
3,O=C(c1cnc(-c2cnccn2)o1)N1CCc2[nH]cnc2C1c1cc2ccccn2n1 (centres unmarked),> 5
4,O=C(c1cnc(-c2ccccn2)o1)N1CCc2[nH]cnc2C1c1cc2ccccn2n1 (centres unmarked) [listing 1 of 2 here],> 5
5,Cc1nnc(C(=O)N2CCc3[nH]cnc3C2c2cc3ccccn3n2)o1 (centres unmarked) [listing 1 of 2 here],> 5
6,O=C(c1cn[nH]c1Cl)N1CCc2[nH]cnc2C1c1cc2ccccn2n1 (centres unmarked) [listing 1 of 2 here],1 to 5
7,Cc1cccn2nc(C3c4nc[nH]c4CCN3C(=O)c3ccnn3C(F)F)cc12 (centres unmarked),1 to 5
8,Cn1ccc(C(=O)N2CCc3[nH]cnc3C2c2cc3ccccn3n2)n1 (centres unmarked),> 5
9,Cn1nc(N)cc1C(=O)N1CCc2[nH]cnc2C1c1cc2ccccn2n1 (centres unmarked),> 5
10,O=C(c1nnc(-c2cnn(CC(F)F)c2)o1)N1CCc2[nH]cnc2C1c1cc2ccccn2n1 (centres unmarked),1 to 5
11,Cc1ccn2nc(C3c4nc[nH]c4CCN3C(=O)c3nnc(-c4ccn(C)n4)o3)cc2c1 (centres unmarked) [listing 2 of 2 here],1 to 5
12,Cc1c(C2c3nc[nH]c3CCN2C(=O)c2nnc(-c3cnn(C)c3)o2)nn2ccccc12 (centres unmarked),1 to 5
13,Cc1ccn2nc(C3c4nc[nH]c4CCN3C(=O)c3nnc(-c4cnn(C)c4)o3)cc2c1 (centres unmarked) [listing 2 of 2 here],1 to 5
14,CC(F)(F)c1nnc(N2CCc3[nH]cnc3C2c2cc3cccc(C(F)(F)F)n3n2)o1 (centres unmarked),1 to 5
15,CC(C)(O)c1cc(C(=O)N2CCc3[nH]cnc3C2c2cc3ccccn3n2)no1 (centres unmarked),> 5
16,CC(C)(O)c1nc(C(=O)N2CCc3[nH]cnc3C2c2cc3ccccn3n2)no1 (centres unmarked),> 5
17,COc1cccn2nc(C3c4nc[nH]c4CCN3C(=O)c3oc(C(C)(C)O)nc3C(F)F)cc12 (centres unmarked),> 5
18,Cc1cccn2nc(C3c4nc[nH]c4CCN3C(=O)c3cnc(C(C)(C)O)o3)cc12 (centres unmarked),1 to 5
19,Cc1cccn2nc(C3c4nc[nH]c4CCN3C(=O)c3nnc(C(C)(C)O)o3)cc12 (centres unmarked),1 to 5
20,O=C(c1cnc(-c2ccccn2)o1)N1CCc2[nH]cnc2C1c1cc2ccccn2n1 (centres unmarked) [listing 2 of 2 here],1 to 5
21,CC(C)(O)c1ncc(C(=O)N2CCc3[nH]cnc3C2c2cc3ccccn3n2)o1 (centres unmarked),1 to 5
22,O=C(c1ccnn1-c1ccccn1)N1CCc2[nH]cnc2C1c1cc2ccccn2n1 (centres unmarked),1 to 5
23,CC(C)(O)c1cc(C(=O)N2CCc3[nH]cnc3C2c2cc3ccccn3n2)on1 (centres unmarked),1 to 5
24,O=C(c1cnn(-c2ccccn2)c1Cl)N1CCc2[nH]cnc2C1c1cc2ccccn2n1 (centres unmarked),1 to 5
25,Cc1nnc(C(=O)N2CCc3[nH]cnc3C2c2cc3ccccn3n2)o1 (centres unmarked) [listing 2 of 2 here],1 to 5

row,Compound,AC50 [µM]
1,O=C(C1CN(CC(F)(F)F)C1)N1CCc2[nH]cnc2C1c1cc2ccccn2n1 (centres unmarked),> 5
2,O=C(c1cn[nH]c1)N1CCc2[nH]cnc2C1c1cc2ccccn2n1 (centres unmarked),> 5
3,Cc1cccn2nc(C3c4nc[nH]c4CCN3C(=O)c3nnc(N4CCOCC4)o3)cc12 (centres unmarked),1 to 5
4,Cn1cc(-c2nc(C(F)F)c(C(=O)N3CCc4[nH]cnc4C3c3cc4ccccn4n3)o2)cn1 (centres unmarked),1 to 5
5,Cn1ccc(-c2nc(C(F)F)c(C(=O)N3CCc4[nH]cnc4C3c3cc4ccccn4n3)o2)n1 (centres unmarked),> 5
6,Cc1cccn2nc(C3c4nc[nH]c4CCN3C(=O)c3oc(-c4ccn(C)n4)nc3C(F)F)cc12 (centres unmarked),1 to 5
7,COc1cccn2nc(C3c4nc[nH]c4CCN3C(=O)c3ocnc3C(F)F)cc12 (centres unmarked),1 to 5
8,Cc1cccn2nc(C3c4nc[nH]c4CCN3C(=O)c3ocnc3C(F)F)cc12 (centres unmarked),1 to 5
9,Cc1ccc2cc(C3c4nc[nH]c4CCN3C(=O)c3ocnc3C(F)F)nn2c1 (centres unmarked),1 to 5
10,CCn1cnnc1C(=O)N1CCc2[nH]cnc2C1c1cc2ccccn2n1 (centres unmarked),1 to 5
11,O=C(c1ocnc1C(F)F)N1CCc2[nH]cnc2C1c1cc2c(Cl)cccn2n1 (centres unmarked),1 to 5
12,Cc1nc(C(=O)N2CCc3[nH]cnc3C2c2cc3c(F)cccn3n2)n(C)n1 (centres unmarked),1 to 5
13,NC(=O)c1ncoc1C(=O)N1CCc2[nH]cnc2C1c1cc2ccccn2n1 (centres unmarked),1 to 5
14,O=C(c1ccn[nH]1)N1CCc2[nH]cnc2C1c1cc2ccccn2n1 (centres unmarked),> 5
15,O=C(c1cnco1)N1CCc2[nH]cnc2C1c1cc2ccccn2n1 (centres unmarked),1 to 5
16,O=C(c1cnn(CC(F)(F)F)c1Cl)N1CCc2[nH]cnc2C1c1cc2ccccn2n1 (centres unmarked),1 to 5
17,O=C(c1cn[nH]c1Cl)N1CCc2[nH]cnc2C1c1cc2ccccn2n1 (centres unmarked) [listing 2 of 2 here],1 to 5
18,Cc1nc(C(C)O)oc1C(=O)N1CCc2[nH]cnc2C1c1cc2ccccn2n1 (centres unmarked),1 to 5
19,Cc1cccn2nc(C3c4nc[nH]c4CCN3C(=O)c3oc(C(C)O)nc3C(F)F)cc12 (centres unmarked),1 to 5
20,CC(O)c1nc(C(F)F)c(C(=O)N2CCc3[nH]cnc3C2c2cc3c(Cl)cccn3n2)o1 (centres unmarked),1 to 5
21,Cc1nc(C(C)O)oc1C(=O)N1CCc2[nH]cnc2C1c1cc2c(F)cccn2n1 (centres unmarked),1 to 5
22,"Cc1cccc2cc([C@H]3c4nc[nH]c4CCN3C(=O)c3ncnn3C)nn12 (single isomer, unassigned)",> 5
23,"COc1cccn2nc([C@H]3c4nc[nH]c4CCN3C(=O)c3cc(C(C)(C)C)nn3C)cc12 (single isomer, unassigned)",> 5
24,"Cc1ccn2nc([C@@H]3c4nc[nH]c4CCN3C(=O)c3ccnn3C(F)F)cc2c1 (single isomer, unassigned)",1 to 5
